{
  "source": "patent US20260183295A1",
  "about": "“METHODS AND COMPOSITIONS FOR TREATING CANCER” (Onconova Therapeutics, Inc., priority 2022, published 2026)",
  "key": {"CHEK1": {"molecular_target": "T1, CHEK1 (Homo sapiens, UniProt O14757)", "T1 construct": "endogenous in cells; host or cells: MDA-MB-231", "T1 sequence (O14757 1-476)": "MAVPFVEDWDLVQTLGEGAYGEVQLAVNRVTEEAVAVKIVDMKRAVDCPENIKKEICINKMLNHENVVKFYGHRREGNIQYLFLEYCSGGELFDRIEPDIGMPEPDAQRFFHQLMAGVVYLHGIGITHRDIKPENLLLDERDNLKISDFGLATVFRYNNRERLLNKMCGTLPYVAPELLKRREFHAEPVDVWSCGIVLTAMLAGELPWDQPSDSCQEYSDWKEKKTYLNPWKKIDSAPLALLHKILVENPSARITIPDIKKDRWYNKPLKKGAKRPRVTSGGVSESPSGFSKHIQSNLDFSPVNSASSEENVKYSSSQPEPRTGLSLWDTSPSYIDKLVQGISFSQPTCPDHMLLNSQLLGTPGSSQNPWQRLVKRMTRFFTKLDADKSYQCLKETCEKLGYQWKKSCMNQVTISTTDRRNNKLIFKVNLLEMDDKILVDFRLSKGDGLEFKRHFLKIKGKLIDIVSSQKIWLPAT", "experiment": "CETSA-MS, MDA-MB-231 cell lysates and intact cells", "type": "cell-based", "details": "present in both MDA-MB-231 cell lysates and intact cells", "protocol": "(§1) Following treatment, cell lysates were thermally treated in a thermal gradient profile across a temperature range. Following the thermal shift, cell lysates were spun by centrifuge to pellet aggregate protein and the supernatant withdrawn. The supernatant was then denatured in buffer and heated to denature, reduce, and alkylate the supernatant proteins. Following heating and cooling to room temperature, cold acetone was added to the supernatant samples and proteins precipitated.\nTNBC MDA-MB-231 cells were grown at 37° C. in 5% CO2 and suspended in warm media and split into 4 equal volumes. […] Cells were incubated and then pelleted. Following pelleting, the cells were washed, resuspended, and heated in a thermal gradient. Following heating, the samples were flash frozen and lysed in lysis buffer, agitated by vortex, and sonicated prior to centrifugation. The supernatant was collected and denaturation buffer added. Cold acetone was then added to the cell samples, and protein collected by centrifugation. Pellets were then washed twice with cold acetone and the washed pellets prior to labeling.\n(§2) The intact cell protein samples and lysate protein samples were then digested and labeled for mass spectrometry analysis according to the manufacturer's recommended protocols. Digested and labeled protein samples were analyzed by mass spectrometry proteomic analysis and the resulting protein targets were analyzed and plotted."}, "BRAF": {"system": "BRAF", "experiment": "Phosphoproteomic analysis, MDA-MB-231", "type": "cell-based", "details": "5 μM, 2 hours, T-test p<0,05", "protocol": "Following treatment, a sample of each of the three treatments was analyzed by Western Blot for expression of phosphoprotein targets.\nIn addition to western blot analysis, the cell lysate samples underwent phosphoproteomic analysis."}, "Cyclin D1": {"system": "Cyclin D1", "experiment": "Western blot, MDA-MB-231 cells, 24 hours", "type": "cell-based", "details": "2.5, 5, 10 μM, versus Comparator 1, 2 and 4"}, "p21": {"system": "p21", "experiment": "Western blot, MDA-MB-231 cells, 24 hours", "type": "cell-based", "details": "2.5, 5, 10 μM, versus Comparator 1, 2 and 4"}, "MDA-MB-231 cells [1]": {"system": "MDA-MB-231 cells", "experiment": "Transmission electron microscopy of cellular morphology", "type": "cell-based", "details": "5 μM, 24 hours, compared to DMSO", "protocol": "The effect of Compound 1 (5 μM) treatment for 24 hours on cellular morphology was assessed using transmission electron microscopy (TEM) and compared to DMSO. FIG. 27 and FIG. 28 show representative TEM images of MDA-MB-231 cells treated with DMSO or Compound 1."}, "MDA-MB-231 cells [2]": {"system": "MDA-MB-231 cells", "experiment": "Annexin V/PI staining with or without bafilomycin A1, 2 days", "type": "cell-based", "details": "5 μM", "from_the_text": "The effect was increased with bafilomycin A1 cotreatment."}, "Caspase 3/7": {"system": "Caspase 3/7", "experiment": "Caspase 3/7 Glo assay with or without bafilomycin A1, MDA-MB-231 cells, 2 days", "type": "cell-based", "details": "5 μM", "from_the_text": "FIGS. 34 and 35 show Caspase 3/7 activity as measured by the Caspase 3/7 Glo assay. […] The effect was enhanced by co-treatment with bafilomycin A1 cotreatment."}, "PyMT cells": {"system": "PyMT cells", "experiment": "Annexin V/PI staining, apoptotic cells, 48 hours", "type": "cell-based, mouse", "details": "compared to Comparator 1 (5 μM) and Comparator 3 (1 μM)"}, "CXCL10": {"system": "CXCL10", "experiment": "qPCR of T-cell recruiting chemokine mRNA, PyMT cells", "type": "cell-based, mouse"}, "CDK4/cyclin D1": {"molecular_target": "CDK4/cyclin D1 (Homo sapiens, UniProt P11802)", "sequence (P11802 whole entry)": "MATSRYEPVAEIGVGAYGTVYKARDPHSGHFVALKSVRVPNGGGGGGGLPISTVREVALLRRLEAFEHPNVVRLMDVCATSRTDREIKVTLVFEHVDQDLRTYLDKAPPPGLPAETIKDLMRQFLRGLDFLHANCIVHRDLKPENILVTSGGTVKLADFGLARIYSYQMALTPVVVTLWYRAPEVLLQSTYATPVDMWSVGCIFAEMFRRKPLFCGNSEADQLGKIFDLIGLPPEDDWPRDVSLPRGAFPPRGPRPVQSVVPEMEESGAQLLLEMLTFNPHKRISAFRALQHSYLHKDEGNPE", "sequence (P24385 whole entry partner)": "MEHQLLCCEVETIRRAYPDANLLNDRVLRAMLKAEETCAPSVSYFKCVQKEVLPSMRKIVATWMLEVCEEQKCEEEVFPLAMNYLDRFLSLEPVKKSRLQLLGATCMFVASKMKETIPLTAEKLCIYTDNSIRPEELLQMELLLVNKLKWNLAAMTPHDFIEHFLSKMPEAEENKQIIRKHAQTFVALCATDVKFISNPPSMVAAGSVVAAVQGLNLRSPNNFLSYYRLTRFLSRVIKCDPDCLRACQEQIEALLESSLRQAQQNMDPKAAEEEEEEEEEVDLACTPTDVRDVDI", "experiment": "CDK4/cyclin D1 In Vitro Kd, kinase binding assay (qPCR)", "protocol": "Kinase-tagged T7 phage strains were prepared in an E. coli host derived from the BL21 strain. E. coli were grown to log-phase and infected with T7 phage and incubated with shaking at 32° C. until lysis. […] The remaining kinases were produced in HEK-293 cells and subsequently tagged with DNA for qPCR detection. […] The liganded beads were blocked with excess biotin and washed with blocking buffer (SeaBlock (Pierce), 1% BSA, 0.05% Tween 20, 1 mM DTT) to remove unbound ligand and to reduce non-specific binding. […] Test compounds were prepared as 111× stocks in 100% DMSO. Kds were determined using an 11-point 3-fold compound dilution series with three DMSO control points. […] The compounds were then diluted directly into the assays such that the final concentration of DMSO was 0.9%. All reactions performed in polypropylene 384-well plate. Each was a final volume of 0.02 ml. […] The kinase concentration in the eluates was measured by qPCR. […] Curves were fitted using a non-linear least square fit with the Levenberg-Marquardt algorithm."}, "NUAK1": {"molecular_target": "T2, NUAK1 (Homo sapiens, UniProt O60285)", "T2 sequence (O60285 1-661)": "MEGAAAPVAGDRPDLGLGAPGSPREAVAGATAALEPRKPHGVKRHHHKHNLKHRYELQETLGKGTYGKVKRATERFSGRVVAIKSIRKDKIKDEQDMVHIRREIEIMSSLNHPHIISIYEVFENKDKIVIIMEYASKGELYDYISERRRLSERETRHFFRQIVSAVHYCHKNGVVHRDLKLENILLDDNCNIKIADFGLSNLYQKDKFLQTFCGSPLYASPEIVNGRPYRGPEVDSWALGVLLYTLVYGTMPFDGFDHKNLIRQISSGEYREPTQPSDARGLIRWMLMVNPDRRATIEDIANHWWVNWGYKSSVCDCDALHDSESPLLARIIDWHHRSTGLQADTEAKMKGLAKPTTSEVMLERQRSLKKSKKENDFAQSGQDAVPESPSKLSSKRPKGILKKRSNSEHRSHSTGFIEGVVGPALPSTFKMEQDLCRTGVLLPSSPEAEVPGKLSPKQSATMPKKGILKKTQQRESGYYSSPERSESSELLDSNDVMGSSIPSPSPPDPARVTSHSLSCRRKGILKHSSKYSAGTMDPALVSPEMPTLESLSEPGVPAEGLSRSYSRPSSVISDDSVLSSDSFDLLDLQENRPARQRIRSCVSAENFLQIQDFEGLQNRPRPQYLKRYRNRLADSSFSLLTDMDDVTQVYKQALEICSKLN", "experiment": "NUAK1 CETSA", "type": "cell-based", "design": "endogenous in cells; host or cells: MDA-MB-231 (lysates and intact cells)", "protocol": "as §1\nTNBC MDA-MB-231 cells were grown at 37° C. in 5% CO2 and suspended in warm media and split into 4 equal volumes. […] Cells were incubated and then pelleted. Following pelleting, the cells were washed, resuspended, and heated in a thermal gradient. Following heating, the samples were flash frozen and lysed in lysis buffer, agitated by vortex, and sonicated prior to centrifugation. The supernatant was collected and denaturation buffer added. Cold acetone was then added to the cell samples, and protein collected by centrifugation. […]\nas §2"}},
  "data": [
    {"smiles": "CN1CCN(c2ccc(Nc3ncc4cc(C#N)c(=O)n(C5CCCC5)c4n3)cc2)CC1", "note": "[Compound 1, 8-cyclopentyl-2-((4-(4-methylpiperazin-1-yl)phenyl)amino)-7-oxo-7,8-dihydropyrido[2,3-d]pyrimidine-6-carbonitrile]", "values": [
      {"measurement": "Group (CETSA-MS thermal shift)", "setting": "CHEK1", "value": "Destabilization"},
      {"measurement": "Significance (phosphopeptide target)", "setting": "BRAF", "value": "significant"},
      {"measurement": "Cyclin D1 levels", "setting": "Cyclin D1", "value": "decreasing"},
      {"measurement": "p21 levels", "setting": "p21", "value": "decreasing"},
      {"measurement": "cellular morphology (TEM)", "setting": "MDA-MB-231 cells [1]", "value": "extensive vacuolization"},
      {"measurement": "cell death (Annexin V/PI), compound alone", "setting": "MDA-MB-231 cells [2]", "value": "induced cell death"},
      {"measurement": "effect of bafilomycin A1 cotreatment on cell death (Annexin V/PI)", "setting": "MDA-MB-231 cells [2]", "value": "increased"},
      {"measurement": "Caspase 3/7 activity, compound alone", "setting": "Caspase 3/7", "value": "increased Caspase 3/7 activity"},
      {"measurement": "effect of bafilomycin A1 cotreatment on Caspase 3/7 activity", "setting": "Caspase 3/7", "value": "enhanced"},
      {"measurement": "number of apoptotic cells (Annexin V/PI)", "setting": "PyMT cells", "value": "increased numbers of apoptotic cells"},
      {"measurement": "time of peak CXCL10 mRNA levels", "setting": "CXCL10", "value": "~48", "unit": "h"},
      {"measurement": "CXCL10 mRNA levels", "setting": "CXCL10; 24, 48 and 72 hours", "value": "large increase"},
      {"measurement": "Kd", "setting": "CDK4/cyclin D1", "value": 0.18, "unit": "nM"},
      {"measurement": "CETSA", "setting": "NUAK1", "value": "NEG"}
    ]}
  ]
}
